# Data taken from ChEMBL document CHEMBL4630901 (2021).
# Experiments:
# [1] = molecular target: Histamine H3 receptor (Homo sapiens) (UniProt Q9Y5N1); conditions: Compound concentration 10.0 uM
# [2] = molecular target: Prostaglandin F2-alpha receptor (Homo sapiens, UniProt P43088); assay: Panlabs binding assay
# [3] = molecular target: Alpha-2B adrenergic receptor (Homo sapiens) (UniProt P18089); conditions: Compound concentration 10.0 uM
# [4] = molecular target: Sodium-dependent dopamine transporter (Homo sapiens) (UniProt Q01959); conditions: Compound concentration 10.0 uM
# Sodium-dependent dopamine transporter (Homo sapiens), sequence (Q01959 whole entry): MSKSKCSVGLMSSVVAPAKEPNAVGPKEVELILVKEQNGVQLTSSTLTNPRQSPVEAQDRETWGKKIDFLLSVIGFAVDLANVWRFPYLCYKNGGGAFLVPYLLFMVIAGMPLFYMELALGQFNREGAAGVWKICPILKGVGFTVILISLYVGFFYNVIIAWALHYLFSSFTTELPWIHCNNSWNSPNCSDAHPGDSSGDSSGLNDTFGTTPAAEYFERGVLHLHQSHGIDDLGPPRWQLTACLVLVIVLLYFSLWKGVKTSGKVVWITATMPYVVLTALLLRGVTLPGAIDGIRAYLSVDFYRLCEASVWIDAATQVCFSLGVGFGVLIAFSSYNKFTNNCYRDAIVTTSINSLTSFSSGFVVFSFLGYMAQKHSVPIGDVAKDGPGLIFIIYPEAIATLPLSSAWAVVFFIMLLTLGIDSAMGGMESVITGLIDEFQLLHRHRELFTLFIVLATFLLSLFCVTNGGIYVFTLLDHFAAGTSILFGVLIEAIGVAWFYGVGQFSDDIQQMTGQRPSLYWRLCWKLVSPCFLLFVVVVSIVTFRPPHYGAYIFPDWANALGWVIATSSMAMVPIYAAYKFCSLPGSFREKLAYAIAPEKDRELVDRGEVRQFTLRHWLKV
# [5] = molecular target: T1, 5-hydroxytryptamine receptor 1A (Homo sapiens) (UniProt P08908); conditions: Compound concentration 10.0 uM
# T1 sequence (whole entry): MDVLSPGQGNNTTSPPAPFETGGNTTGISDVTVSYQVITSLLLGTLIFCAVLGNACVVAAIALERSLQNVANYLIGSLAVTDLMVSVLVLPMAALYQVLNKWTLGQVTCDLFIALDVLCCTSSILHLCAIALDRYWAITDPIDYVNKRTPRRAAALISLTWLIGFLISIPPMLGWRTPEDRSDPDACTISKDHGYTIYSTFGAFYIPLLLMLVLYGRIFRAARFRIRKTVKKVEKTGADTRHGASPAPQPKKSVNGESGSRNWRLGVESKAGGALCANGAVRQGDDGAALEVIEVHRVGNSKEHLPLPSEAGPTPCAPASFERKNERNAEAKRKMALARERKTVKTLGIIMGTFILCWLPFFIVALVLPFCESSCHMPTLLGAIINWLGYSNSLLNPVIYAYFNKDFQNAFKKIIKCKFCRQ
# [6] = molecular target: Beta-3 adrenergic receptor (Homo sapiens) (UniProt P13945); conditions: Compound concentration 10.0 uM
# Beta-3 adrenergic receptor (Homo sapiens), sequence (P13945 whole entry, looked up): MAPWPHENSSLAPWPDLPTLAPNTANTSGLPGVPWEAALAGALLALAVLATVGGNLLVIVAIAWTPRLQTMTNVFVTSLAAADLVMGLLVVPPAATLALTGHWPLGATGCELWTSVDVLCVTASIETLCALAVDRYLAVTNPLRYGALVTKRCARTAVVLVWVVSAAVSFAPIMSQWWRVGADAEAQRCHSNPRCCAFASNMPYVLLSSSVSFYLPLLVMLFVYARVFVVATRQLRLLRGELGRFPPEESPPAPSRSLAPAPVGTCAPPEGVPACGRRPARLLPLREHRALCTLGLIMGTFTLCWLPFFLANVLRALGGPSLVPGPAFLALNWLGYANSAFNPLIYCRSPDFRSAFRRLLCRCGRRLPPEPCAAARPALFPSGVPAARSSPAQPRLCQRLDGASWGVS
# [7] = molecular target: Histamine H1 receptor (Homo sapiens) (UniProt P35367); conditions: Compound concentration 10.0 uM
# Histamine H1 receptor (Homo sapiens), sequence (P35367 whole entry): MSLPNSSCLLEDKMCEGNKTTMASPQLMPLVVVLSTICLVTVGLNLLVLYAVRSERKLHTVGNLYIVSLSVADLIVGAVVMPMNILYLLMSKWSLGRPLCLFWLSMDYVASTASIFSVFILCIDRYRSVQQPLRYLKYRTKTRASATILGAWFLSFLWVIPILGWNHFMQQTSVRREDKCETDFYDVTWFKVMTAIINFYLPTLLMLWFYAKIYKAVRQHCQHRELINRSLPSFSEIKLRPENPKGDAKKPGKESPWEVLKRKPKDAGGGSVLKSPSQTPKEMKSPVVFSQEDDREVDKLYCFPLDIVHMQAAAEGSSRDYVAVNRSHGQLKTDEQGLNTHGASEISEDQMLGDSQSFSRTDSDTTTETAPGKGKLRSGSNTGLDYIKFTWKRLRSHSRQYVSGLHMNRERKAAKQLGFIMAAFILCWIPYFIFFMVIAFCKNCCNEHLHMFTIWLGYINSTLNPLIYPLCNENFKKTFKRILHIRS
# [8] = molecular target: Cannabinoid receptor 2 (Homo sapiens) (UniProt P34972); conditions: Compound concentration 10.0 uM
# Cannabinoid receptor 2 (Homo sapiens), sequence (P34972 whole entry): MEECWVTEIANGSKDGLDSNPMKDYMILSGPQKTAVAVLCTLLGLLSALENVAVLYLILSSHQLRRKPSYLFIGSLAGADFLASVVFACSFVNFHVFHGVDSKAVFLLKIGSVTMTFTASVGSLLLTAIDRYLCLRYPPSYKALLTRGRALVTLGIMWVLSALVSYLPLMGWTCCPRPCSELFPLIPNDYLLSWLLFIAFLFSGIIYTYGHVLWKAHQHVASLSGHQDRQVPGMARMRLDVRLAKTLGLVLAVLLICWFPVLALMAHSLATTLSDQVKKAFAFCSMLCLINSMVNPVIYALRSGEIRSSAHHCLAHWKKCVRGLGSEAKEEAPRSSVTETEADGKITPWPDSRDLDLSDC
# [9] = molecular target: Histamine H3 receptor (Homo sapiens) (UniProt Q9Y5N1); conditions: Compound concentration 10.0 uM; remark: listed apart in the source
# [10] = molecular target: Histamine H4 receptor (Homo sapiens) (UniProt Q9H3N8); conditions: Compound concentration 10.0 uM
# [11] = molecular target: Adenosine receptor A3 (Homo sapiens) (UniProt P0DMS8); conditions: Compound concentration 10.0 uM
# Adenosine receptor A3 (Homo sapiens), sequence (P0DMS8 whole entry): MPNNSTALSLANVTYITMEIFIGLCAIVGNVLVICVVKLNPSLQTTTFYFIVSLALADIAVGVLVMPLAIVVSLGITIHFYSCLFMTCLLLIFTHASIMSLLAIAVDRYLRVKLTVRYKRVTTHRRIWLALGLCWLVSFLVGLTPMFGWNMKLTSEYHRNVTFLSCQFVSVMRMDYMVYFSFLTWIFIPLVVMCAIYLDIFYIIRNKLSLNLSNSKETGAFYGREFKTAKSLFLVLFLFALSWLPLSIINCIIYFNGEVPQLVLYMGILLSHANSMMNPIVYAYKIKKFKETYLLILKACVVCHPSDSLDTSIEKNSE
# [12] = molecular target: Glucocorticoid receptor (Homo sapiens) (UniProt P04150); conditions: Compound concentration 10.0 uM
# Glucocorticoid receptor (Homo sapiens), sequence (P04150 whole entry): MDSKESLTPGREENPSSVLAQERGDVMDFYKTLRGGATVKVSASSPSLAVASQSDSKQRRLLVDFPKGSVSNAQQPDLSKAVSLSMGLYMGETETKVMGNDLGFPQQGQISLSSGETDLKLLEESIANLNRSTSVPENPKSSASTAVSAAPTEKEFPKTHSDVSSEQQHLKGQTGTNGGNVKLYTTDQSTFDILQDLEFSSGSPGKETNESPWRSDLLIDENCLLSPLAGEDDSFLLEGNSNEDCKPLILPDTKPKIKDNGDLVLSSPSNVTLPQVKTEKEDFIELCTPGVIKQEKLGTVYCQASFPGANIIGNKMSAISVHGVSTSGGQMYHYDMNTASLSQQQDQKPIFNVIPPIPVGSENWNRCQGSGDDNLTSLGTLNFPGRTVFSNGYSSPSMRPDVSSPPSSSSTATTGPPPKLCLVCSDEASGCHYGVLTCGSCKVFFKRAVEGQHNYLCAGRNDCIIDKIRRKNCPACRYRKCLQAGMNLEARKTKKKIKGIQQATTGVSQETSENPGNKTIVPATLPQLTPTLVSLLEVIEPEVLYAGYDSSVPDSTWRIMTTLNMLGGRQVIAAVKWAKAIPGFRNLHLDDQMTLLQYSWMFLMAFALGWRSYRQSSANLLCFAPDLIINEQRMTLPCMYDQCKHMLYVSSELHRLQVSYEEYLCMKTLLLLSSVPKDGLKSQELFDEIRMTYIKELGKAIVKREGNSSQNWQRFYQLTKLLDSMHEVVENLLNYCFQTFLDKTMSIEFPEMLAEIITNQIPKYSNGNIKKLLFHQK
# [13] = molecular target: Purinergic P2Y (Rattus norvegicus) (UniProt O35811+Q9EPX4+P49651+Q63371+P41232+O35881+Q6GUG4); conditions: Compound concentration 10.0 uM
# Histamine H3 receptor (Homo sapiens), sequence (Q9Y5N1 whole entry): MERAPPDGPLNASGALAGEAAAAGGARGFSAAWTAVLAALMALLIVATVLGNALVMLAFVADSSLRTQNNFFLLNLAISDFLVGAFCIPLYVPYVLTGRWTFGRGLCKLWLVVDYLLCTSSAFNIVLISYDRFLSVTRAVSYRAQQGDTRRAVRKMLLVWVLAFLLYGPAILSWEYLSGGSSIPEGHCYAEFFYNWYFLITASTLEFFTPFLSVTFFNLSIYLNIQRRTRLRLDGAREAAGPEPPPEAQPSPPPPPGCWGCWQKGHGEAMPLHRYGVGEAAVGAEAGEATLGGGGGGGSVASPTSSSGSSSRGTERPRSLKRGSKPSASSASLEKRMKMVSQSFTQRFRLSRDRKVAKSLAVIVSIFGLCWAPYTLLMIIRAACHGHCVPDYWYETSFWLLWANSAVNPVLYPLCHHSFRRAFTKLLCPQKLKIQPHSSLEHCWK
# Alpha-2B adrenergic receptor (Homo sapiens), sequence (P18089 whole entry): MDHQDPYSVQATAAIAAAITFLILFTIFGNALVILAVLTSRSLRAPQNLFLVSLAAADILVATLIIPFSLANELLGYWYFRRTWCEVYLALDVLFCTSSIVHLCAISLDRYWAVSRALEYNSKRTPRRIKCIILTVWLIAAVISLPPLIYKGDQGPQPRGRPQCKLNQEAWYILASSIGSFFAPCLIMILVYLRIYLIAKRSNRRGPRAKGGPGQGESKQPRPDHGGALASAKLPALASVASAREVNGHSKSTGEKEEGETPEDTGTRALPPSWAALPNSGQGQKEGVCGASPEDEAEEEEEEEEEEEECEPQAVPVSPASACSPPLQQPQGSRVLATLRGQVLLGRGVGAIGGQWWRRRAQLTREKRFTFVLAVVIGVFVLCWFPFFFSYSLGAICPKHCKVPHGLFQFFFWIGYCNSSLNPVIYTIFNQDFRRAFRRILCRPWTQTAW
# Prostaglandin F2-alpha receptor, sequence (P43088 whole entry): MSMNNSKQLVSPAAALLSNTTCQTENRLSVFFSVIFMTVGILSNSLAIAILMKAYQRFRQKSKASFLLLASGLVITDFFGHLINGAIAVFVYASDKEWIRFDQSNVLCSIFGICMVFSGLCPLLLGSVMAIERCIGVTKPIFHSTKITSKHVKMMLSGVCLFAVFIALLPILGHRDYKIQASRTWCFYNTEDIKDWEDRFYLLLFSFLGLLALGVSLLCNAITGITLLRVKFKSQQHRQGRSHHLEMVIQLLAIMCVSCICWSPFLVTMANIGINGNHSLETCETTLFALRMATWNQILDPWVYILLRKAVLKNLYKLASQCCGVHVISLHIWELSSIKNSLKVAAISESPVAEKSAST
inhibition [1],IC50 [2],inhibition [3],inhibition [4],SMILES,inhibition [5],inhibition [6],inhibition [7],inhibition [8],inhibition [9],inhibition [10],inhibition [11],inhibition [12],inhibition [13]
16.9%,> 10 µM (not active),-3.2%,33.5%,Cc1c(N2CCNCC2)nc2ccc(Br)cc2c1C(=O)NC[C@H](CCC(=O)O)c1ccccc1Cl [BAY-403],–,–,–,–,–,–,–,–,–
–,–,–,–,Cc1c(N2CCCC2)nc2ccc(Br)cc2c1C(=O)NC[C@H](CCC(=O)O)c1ccccc1Cl [BAY-6672],3%,21.6%,15%,13%,-0%,13.1%,15%,11%,5%
